# Values quoted from earlier work, collected in US20220259243A1, “IRON(III) AND GALLIUM(III) METAL ORGANIC POLYHEDRA, METHODS OF MAKING SAME, AND USES THEREOF” (The Research Foundation for The State University of New York, priority 2019, published 2022).
# Conditions: 37° C., 4.7 Tesla, neutral pH
compound,measurement,value
CNC[C@H](O)[C@@H](O)[C@H](O)[C@H](O)CO.CNC[C@H](O)[C@@H](O)[C@H](O)[C@H](O)CO.O=C([O-])CN(CCN(CC(=O)[O-])CC(=O)O)CCN(CC(=O)[O-])CC(=O)O.[Gd+3] [Magnevist],r1 relaxivity,3 mM⁻¹ s⁻¹
